The text below walks through data of patent US20260207602A1, “EGFR INHIBITORS” (Blueprint Medicines Corporation, priority 2022, published 2026).

Test [1] addresses intracellular phosphorylation of EGFR (Tyr1068) in PC-9 cells (Homo sapiens, UniProt P00533, DEL746-750). The test is described as follows: PC-9 pEGFR AlphaLISA assay. The class given is cell-based. The settings on record: 4 hours incubation, read-out: Phos EGFR PC9 IC50. The protocol: PC-9/A431 pEGFR AlphaLISA Assays
Inhibitory effects of compounds were evaluated in cellular assays that measure level of intracellular phosphorylation of EGFR in PC-9 (ECACC, #90071810, Milipore/Sigma) and A431 cell lines (ATCC, CRL-1555) using AlphaLISA sureFire ultra p-EGFR (Tyr1068) assay kit (PerkinElmer, ALSU-PEGFR-A50K). PC-9 cells were seeded at 3.125×10^5 cells/ml in 40 μL phenol-free DMEM supplemented with 10% FBS per well of a 384 well plate (Corning, 3764), while A431 were seeded at […] in 40 μL in phenol-free DMEM with 0.5% FBS. Cells were allowed to adhere overnight at 37° C./5% CO2. On the next day, compounds were transferred at 4-fold, 10-point serial dilution from compound source plate to cell plates using liquid handler Echo550 and were incubated at 37° C./5% CO2 for 4 hours. A431 cells were stimulated prior harvesting for 10 min with EGF at final concentration of 30 ng/ml in the incubator. Medium was removed from the plates and cells were lysed with 10 μL of 1× AlphaLISA lysis buffer (supplemented with 1× protease/phosphatase inhibitor cocktail) followed by shaking at 600 rpm for 30 minutes at room temperature. Lysates were transferred to Optiplate (Apricot designs) and 5 ul of 1× acceptor bead mix (prepared just before use) was added to each well followed by incubation at room temperature for 1.5-2 h in dark. Then 5 μL of freshly-made donor bead mix is added to each well under subdued lighting or green filters, was mixed well on the shaker and the plate was sealed and left for an overnight incubation at room temperature in dark. On the next day, the plate was read the Envision using standard AlphaLisa settings. Percent of pEGFR inhibition was plotted against log concentration of compounds to generate IC50 values.
(In general: Alpha assays give light when donor and acceptor beads are brought close together.)

The next test addresses T1, EGFR L858R (Homo sapiens, UniProt P00533, L858R).
T1 construct: purchased SignalChem E10-122BG
The test is described as follows: Biochemical EGFR inhibition assay (Caliper mobility shift), EGFR L858R. The settings on record: biochemical Caliper mobility shift assay, EGFR L858R enzyme; read-out: Enz EGFR L858R IC50. The protocol:
Inhibitory effects of the compounds of the disclosure were measured in biochemical assays that measure the phosphorylation activity of EGFR enzyme phosphorylates 2.5 micromolar 5-FAM-[…]-CONH2 peptide substrate (ProfilerPro Kinase Peptide Substrate 22, PerkinElmer, Part #760366) in the presence of adenosine-5′-triphosphate (ATP) and varying concentrations of the test compound in 100 mM 2-[4-(2-hydroxyethyl)piperazin-1-yl]ethanesulfonic acid (HEPES), pH 7.5, 10 mM MgCl2, 0.015% Brij-35, 1 mM dithiothreitol (DTT), 1.0% dimehylsulfoxide (DMSO). Assays were performed at 1.0 mM ATP or at ATP Km of the EGFR enzymes. Reactions proceeded until between 10% to 20% total peptides were phosphorylated at room temperature (25° C.) and were terminated with 35 mM 2,2′,2″,2′″-(ethane-1,2-diyldinitrilo)tetraacetic acid (EDTA). Product was detected using the Caliper mobility shift detection method where the phosphorylated peptide (product) and substrate were electrophoretically separated and measured. Percent activity was plotted against log concentration of compound and points to generate an apparent IC50. The following enzyme forms of • EGFR were examples that were used in these assays: • EGFR WT (SignalChem, E10-112G) • EGFR L858R (SignalChem, E10-122BG) • EGFR (d746-750) (SignalChem, E10-122JG) • EGFR L858R C797S (SignalChem, E10-122ZG) • EGFR (d746-750) C797S (SignalChem, E10-122TG)

Chain of intracellular phosphorylation of EGFR (Tyr1068) in PC-9 cells (P00533 with tags, fused parts or gaps DEL746-750): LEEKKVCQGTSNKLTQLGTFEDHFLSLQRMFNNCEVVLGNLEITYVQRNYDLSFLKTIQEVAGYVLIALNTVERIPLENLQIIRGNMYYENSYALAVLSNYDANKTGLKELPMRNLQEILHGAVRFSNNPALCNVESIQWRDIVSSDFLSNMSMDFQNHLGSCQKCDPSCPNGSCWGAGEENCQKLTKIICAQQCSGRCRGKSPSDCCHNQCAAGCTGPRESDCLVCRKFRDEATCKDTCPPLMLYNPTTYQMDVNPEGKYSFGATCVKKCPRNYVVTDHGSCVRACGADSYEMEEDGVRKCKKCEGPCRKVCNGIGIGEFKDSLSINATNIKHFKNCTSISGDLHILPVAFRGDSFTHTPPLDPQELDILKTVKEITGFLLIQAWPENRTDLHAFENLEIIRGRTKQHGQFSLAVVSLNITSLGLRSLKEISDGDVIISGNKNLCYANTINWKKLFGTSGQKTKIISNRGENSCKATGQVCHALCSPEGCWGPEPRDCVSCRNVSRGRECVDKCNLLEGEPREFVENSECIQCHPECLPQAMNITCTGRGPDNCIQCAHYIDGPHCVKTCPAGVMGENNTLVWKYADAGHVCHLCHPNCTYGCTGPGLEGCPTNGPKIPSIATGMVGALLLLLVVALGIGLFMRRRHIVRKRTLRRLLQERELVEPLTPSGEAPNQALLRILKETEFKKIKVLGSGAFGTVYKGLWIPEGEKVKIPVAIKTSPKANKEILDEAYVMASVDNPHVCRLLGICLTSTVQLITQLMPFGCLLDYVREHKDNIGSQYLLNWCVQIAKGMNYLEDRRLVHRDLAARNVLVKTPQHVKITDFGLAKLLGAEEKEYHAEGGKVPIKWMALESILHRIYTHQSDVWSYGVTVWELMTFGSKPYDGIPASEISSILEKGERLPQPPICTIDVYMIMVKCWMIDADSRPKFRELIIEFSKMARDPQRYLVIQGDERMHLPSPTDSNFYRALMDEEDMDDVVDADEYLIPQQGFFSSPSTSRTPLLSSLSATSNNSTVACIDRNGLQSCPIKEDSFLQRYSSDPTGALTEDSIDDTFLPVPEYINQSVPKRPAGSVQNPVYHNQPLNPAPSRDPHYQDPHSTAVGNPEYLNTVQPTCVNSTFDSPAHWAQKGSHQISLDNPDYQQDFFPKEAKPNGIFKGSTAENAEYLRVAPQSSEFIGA
T1 sequence (P00533 25-1210 L858R): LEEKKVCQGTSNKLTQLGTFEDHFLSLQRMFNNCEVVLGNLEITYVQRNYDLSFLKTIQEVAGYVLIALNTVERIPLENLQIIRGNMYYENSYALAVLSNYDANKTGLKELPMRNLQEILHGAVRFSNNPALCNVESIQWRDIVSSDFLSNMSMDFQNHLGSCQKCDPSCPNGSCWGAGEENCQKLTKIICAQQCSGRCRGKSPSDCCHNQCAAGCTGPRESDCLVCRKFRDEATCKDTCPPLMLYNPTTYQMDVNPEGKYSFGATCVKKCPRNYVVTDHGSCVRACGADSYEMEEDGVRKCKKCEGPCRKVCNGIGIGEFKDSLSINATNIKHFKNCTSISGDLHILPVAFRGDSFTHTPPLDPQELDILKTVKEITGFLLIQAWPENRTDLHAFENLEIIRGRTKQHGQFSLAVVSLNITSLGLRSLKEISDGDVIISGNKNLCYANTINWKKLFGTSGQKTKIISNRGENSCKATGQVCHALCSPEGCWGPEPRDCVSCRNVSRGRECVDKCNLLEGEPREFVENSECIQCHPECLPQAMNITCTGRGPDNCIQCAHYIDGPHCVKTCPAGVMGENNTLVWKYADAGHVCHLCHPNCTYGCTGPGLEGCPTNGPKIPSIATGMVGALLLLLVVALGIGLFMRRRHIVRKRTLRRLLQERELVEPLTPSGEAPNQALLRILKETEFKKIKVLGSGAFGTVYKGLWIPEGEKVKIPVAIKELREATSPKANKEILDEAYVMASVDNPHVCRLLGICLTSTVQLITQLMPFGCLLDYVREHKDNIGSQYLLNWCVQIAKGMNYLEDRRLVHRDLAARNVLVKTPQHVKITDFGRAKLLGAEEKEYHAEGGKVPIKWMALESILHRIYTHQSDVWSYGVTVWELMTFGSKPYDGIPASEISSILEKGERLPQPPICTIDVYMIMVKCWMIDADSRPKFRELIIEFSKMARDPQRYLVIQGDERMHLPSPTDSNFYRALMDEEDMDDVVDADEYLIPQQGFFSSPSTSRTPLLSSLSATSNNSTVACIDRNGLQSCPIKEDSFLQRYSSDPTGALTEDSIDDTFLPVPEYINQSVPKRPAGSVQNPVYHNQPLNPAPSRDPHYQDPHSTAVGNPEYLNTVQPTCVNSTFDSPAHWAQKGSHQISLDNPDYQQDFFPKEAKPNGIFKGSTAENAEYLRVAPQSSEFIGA

Broadly, the IC50 is the concentration at which inhibition is half-maximal. As for `C[C@H](CO)Oc1cc(N2CCN(C)CC2)cc2ncnc(Nc3ccc4ncsc4c3)c12` (single isomer, unassigned) [Example 294], the IC50 is 10.1 to 50 nM in test [1] and at most 10 nM at EGFR L858R.

Turning to `Cn1cc(-c2cc(O[C@@H]3C[C@@H](O)[C@@H](O)C3)c3c(Nc4ccc5ncsc5c4)ncnc3c2)cn1` (single isomer, unassigned) [Example A23], the IC50 was 10.1 to 50 nM in test [1] and at most 10 nM on EGFR L858R.

For `CO[C@@H]1CN(C)CC[C@H]1Oc1cc(-c2cnn(C)c2)cc2ncnc(Nc3ccc4ncsc4c3)c12` (single isomer, unassigned) [Example A44], the IC50 in test [1] is 10.1 to 50 nM; at EGFR L858R, at most 10 nM.

On to `COc1nn(C)cc1-c1cc(O[C@H](C)C2COC2)c2c(Nc3ccc4ncsc4c3)ncnc2c1` (single isomer, unassigned) [Example 171], for which the IC50 on EGFR L858R is at most 10 nM.

As for `C[C@@H](Oc1cc(-c2cnn(C)c2)cc2ncnc(Nc3ccc4ncsc4c3)c12)[C@H]1CNCCO1` (single isomer, unassigned) [Example 208], the IC50 on EGFR L858R was at most 10 nM.

Consider `C[C@@H](Oc1cc(-c2cnn(C)c2)cc2ncnc(Nc3ccc4ncsc4c3F)c12)C1(C)COC1` (single isomer, unassigned) [Example 87], for which the IC50 on EGFR L858R was at most 10 nM.

Take `CN1CC[C@H](Oc2cc(-c3cnn(C)c3)cc3ncnc(Nc4ccc5ncsc5c4)c23)[C@@H](O)C1` (single isomer, unassigned) [Example A36]: the IC50 in test [1] is 10.1 to 50 nM; at EGFR L858R, at most 10 nM.

As for `Cn1cc(-c2cc(O[C@H]3CCNC[C@@H]3F)c3c(Nc4ccc5ncsc5c4)ncnc3c2)cn1` (single isomer, unassigned) [Example 347], on EGFR L858R, the IC50 was at most 10 nM.

For `CN1C[C@H](F)[C@H](Oc2cc(-c3cnn(C)c3)cc3ncnc(Nc4ccc5ncsc5c4)c23)C1` (single isomer, unassigned) [Example 381], the IC50 is 10.1 to 50 nM in test [1] and at most 10 nM on EGFR L858R.

On to `Cn1cc(-c2cc(O[C@@H]3CCOC[C@@H]3F)c3c(Nc4ccc5ncsc5c4)ncnc3c2)cn1` (single isomer, unassigned) [Example 44], for which the IC50 in test [1] is 10.1 to 50 nM; on EGFR L858R, at most 10 nM.

As for `C[C@H](CO)Oc1cc(-c2cnn(C)c2)cc2ncnc(Nc3ccc4ncsc4c3F)c12` (single isomer, unassigned) [Example 290], the IC50 on EGFR L858R is at most 10 nM.

Take `CN1CC[C@@H](Nc2cc3c(Nc4ccc5ncsc5c4)ncnc3cc2-c2ccn(C)n2)[C@H](F)C1` (single isomer, unassigned) [Example 328]: the IC50 on EGFR L858R was at most 10 nM.

`COc1nn(C)cc1-c1cc(O[C@H](C)C2COC2)c2c(Nc3ccc4ncsc4c3F)ncnc2c1` (single isomer, unassigned) [Example 79]: the IC50 on EGFR L858R is at most 10 nM.

For the molecule `C[C@H](CO)n1cc(-c2cc(O[C@H](C)C3COC3)c3c(Nc4ccc5ncsc5c4)ncnc3c2)cn1` (single isomer, unassigned) [Example 298], the concentration for half-maximal inhibition (IC50) at EGFR L858R was at most 10 nM.

Regarding `CN1C[C@H](F)C[C@H](Oc2cc(-c3cnn(C)c3)cc3ncnc(Nc4ccc5ncsc5c4)c23)C1` (single isomer, unassigned) [Example 337], the IC50 at EGFR L858R is at most 10 nM.

Take `C[C@H](Oc1cc(-c2cnn(C)c2)cc2ncnc(Nc3ccc4ncsc4c3F)c12)C(=O)N1CCOCC1` (single isomer, unassigned) [Example 283]: the IC50 on EGFR L858R is at most 10 nM.

`Cn1cc(-c2cc(O[C@@H]3CC[C@@H]3O)c3c(Nc4ccc5ncsc5c4)ncnc3c2)cn1` (single isomer, unassigned) [Example A52]: at EGFR L858R, the 50% inhibitory concentration (IC50) was at most 10 nM.

Take `CN1CC[C@H](Nc2cc3c(Nc4ccc5ncsc5c4)ncnc3cc2-c2ccn(C)n2)[C@H](F)C1` (single isomer, unassigned) [Example A06, N4-(benzo[d]thiazol-6-yl)-N6-((3S,4R)-3-fluoro-1-methylpiperidin-4-yl)-7-(1-methyl-1H-pyrazol-3-yl)quinazoline-4,6-diamine or N4-(benzo[d]thiazol-6-yl)-N6-((3R,4S)-3-fluoro-1-methylpiperidin-4-yl)-7-(1-methyl-1H-pyrazol-3-yl)quinazoline-4,6-diamine]: the IC50 at EGFR L858R was at most 10 nM.

`CN1CC[C@H](Oc2cc(-c3cnn(C)c3)cc3ncnc(Nc4ccc5ncsc5c4)c23)[C@@H](F)C1` (single isomer, unassigned) [Example 345]: at EGFR L858R, the IC50 is at most 10 nM.

Turning to `COc1nn(C)cc1-c1cc(O[C@H]2CCNC[C@@H]2F)c2c(Nc3ccc4ncsc4c3)ncnc2c1` (single isomer, unassigned) [Example 361], the IC50 on EGFR L858R was at most 10 nM.

Take `C[C@@H](Oc1cc(-c2cnn(C)c2)cc2ncnc(Nc3ccc4ncsc4c3)c12)C(F)F` (single isomer, unassigned) [Example 53]: the IC50 at EGFR L858R was at most 10 nM.

On to `C[C@@H](Oc1cc(-c2cnn(C)c2)cc2ncnc(Nc3ccc4ncsc4c3F)c12)[C@H]1CCOC1` (single isomer, unassigned) [Example 89], for which the IC50 on EGFR L858R was at most 10 nM.

For the molecule `COC[C@H](C)Oc1cc(N2CCN(C(C)C)C2=O)cc2ncnc(Nc3ccc4ncsc4c3)c12` (single isomer, unassigned) [Example 119], the IC50 at EGFR L858R is at most 10 nM.

Turning to `COc1nn(C)cc1-c1cc(O[C@@H](C)C(=O)N(C)C)c2c(Nc3ccc4ncsc4c3F)ncnc2c1` (single isomer, unassigned) [Example 288], the IC50 at EGFR L858R is at most 10 nM.

For `C[C@@H](Oc1cc(-c2cnn(C)c2)cc2ncnc(Nc3ccc4ncsc4c3F)c12)C(=O)N(C)C` (single isomer, unassigned) [Example 280], the IC50 on EGFR L858R is at most 10 nM.

Consider `CN(C)C[C@@H](Oc1cc(-c2cnn(C)c2)cc2ncnc(Nc3ccc4ncsc4c3)c12)C(F)F` (single isomer, unassigned) [Example 152], for which the IC50 on EGFR L858R is at most 10 nM.

Turning to `COCC[C@@H](C)Oc1cc(-c2cnn(C)c2)cc2ncnc(Nc3ccc4ncsc4c3F)c12` (single isomer, unassigned) [Example 109], the IC50 at EGFR L858R was at most 10 nM.

Consider `C[C@H](CN(C)C)Oc1cc(N2CC[C@@H](C(C)(C)O)C2)cc2ncnc(Nc3ccc4ncsc4c3)c12` (single isomer, unassigned) [Example 156], for which, at EGFR L858R, the IC50 is at most 10 nM.

As to `C[C@@H](Oc1cc(-c2cnn(CC(C)(C)O)c2)cc2ncnc(Nc3ccc4ncsc4c3)c12)C1COC1` (single isomer, unassigned) [Example 128], at EGFR L858R, the IC50 is at most 10 nM.

Take `CN1CC[C@H](Oc2cc(-c3cnn(C)c3)cc3ncnc(Nc4ccc5ncsc5c4F)c23)C1` [Example 16, (S)-7-fluoro-N-(7-(1-methyl-1H-pyrazol-4-yl)-5-((1-methylpyrrolidin-3-yl)oxy)quinazolin-4-yl)benzo[d]thiazol-6-amine]: the IC50 at EGFR L858R was 10.1 to 50 nM.

Regarding `CC(Oc1cc(-c2cn[nH]c2)cc2ncnc(Nc3ccc4ncsc4c3)c12)C1COC1` (single isomer, unassigned) [Example 123], the IC50 at EGFR L858R was at most 10 nM.

Take `CC[C@@H](Oc1cc(-c2cnn(C)c2)cc2ncnc(Nc3ccc4ncsc4c3F)c12)C1COC1` (single isomer, unassigned) [Example 93]: the IC50 at EGFR L858R was at most 10 nM.

In the case of `C[C@@H](Oc1cc(-c2cnn(C)c2)cc2ncnc(Nc3ccc4ncsc4c3)c12)[C@H]1CN(C)CCO1` (single isomer, unassigned) [Example 210], on EGFR L858R, the IC50 was at most 10 nM.

`CN1CC[C@@H](Oc2cc(-c3cnn(C)c3)cc3ncnc(Nc4ccc5ncsc5c4)c23)[C@@H](F)C1` (single isomer, unassigned) [Example 341]: the IC50 on EGFR L858R was at most 10 nM.

On to `C[C@@H](Oc1cc(-c2cnn(C(C)(C)CO)c2)cc2ncnc(Nc3ccc4ncsc4c3)c12)C1COC1` (single isomer, unassigned) [Example 292], for which the IC50 at EGFR L858R is at most 10 nM.
